Source: patent US11332620B2, “Solution comprising a dye” (NOURYON CHEMICALS INTERNATIONAL B.V., priority 2018, dated 2022)

Assay: Dissolution of dye powder in CP/DMSO 80/20 mixture
Type: physicochemical
Settings: stirred 24 hours at room temperature

Dissolution in CP/DMSO 80/20 mixture (2.5 gram powder in 22.5 grams CP/DMSO 80/20, followed by 4 hours at 40° C.)	Dissolution in CP/DMSO 80/20 mixture (2.5 grams powder in 22.5 grams CP/DMSO 80/20)	SMILES
completely dissolved		CCN(CCO)c1ccc(N=Nc2ccc([N+](=O)[O-])cc2)cc1 [Disperse Red 1, N-Ethyl-N-(2-hydroxyethyl)-4-(4-nitrophenylazo)aniline]
	completely dissolved	CC(=O)OCCN(CCC#N)c1ccc(N=Nc2nc3ccc([N+](=O)[O-])cc3s2)cc1 [Disperse Red 177, 2-((2-cyanoethyl)(4-((6-nitrobenzothiazol-2-yl)azo)phenyl)amino)ethyl acetate]
